Experimental data taken from patent US7235551B2, “1,5-disubstituted-3,4-dihydro-1h-pyrimido[4,5-d]pyrimidin-2-one compounds and their use in treating csbp/p38 kinase mediated diseases” (SmithKline Beecham Corporation, priority 2000, dated 2007).

First: COc1nc(-c2ccc(F)cc2C)c2c(n1)N(c1c(F)cccc1F)C(=O)NC2 [Example 161, 1-(2,6-Difluorophenyl)-5-(4-fluoro-2-methylphenyl)-7-methoxy-3,4-dihydro-1H-pyrimido[4,5-d]pyrimidin-2-one]
Second: Cc1cc(F)ccc1-c1nc(OCCO)nc2c1CNC(=O)N2c1c(F)cccc1F [Example 163, 1-(2,6-Difluorophenyl)-5-(4-fluoro-2-methylphenyl)-7-(2-hydroxyethoxy)-3,4-dihydro-1H-pyrimido[4,5-d]pyrimidin-2-one]
The melting point of the first is higher: 210 to 211 °C for the first, 172 to 175 °C for the second.

`COc1nc(-c2ccccc2)c2c(n1)N(c1c(F)cccc1F)C(=O)NC2` [Example 166, 1-(2,6-Difluorophenyl)-5-phenyl-7-methoxy-3,4-dihydro-1H-pyrimido[4,5-d]pyrimidin-2-one] and `COc1nc(-c2ccccc2)c2c(n1)N(c1ccccc1)C(=O)NC2` [Example 167, 1,5-diphenyl-7-methoxy-3,4-dihydro-1H-pyrimido[4,5-d]pyrimidin-2-one] cannot be ordered by melting point: 221 to 224 °C for the first, 220 to 222 °C for the second.
